Data on five compounds can be found in ChEMBL document CHEMBL4177652, “Synthesis of 14-deoxy-11,12-didehydroandrographolide analogues as potential cytotoxic agents for cholangiocarcinoma” (Bioorg Med Chem Lett, 2017).

Structures are written as SMILES. A value given as a limit tells only on which side of the number the result lay.

One data set has as its system HuCC-A1. The data set is described as follows: Growth inhibition of human HuCCa1 cells after 72 hrs by SRB assay. Type of data set: functional. Particulars: HuCC-A1, 72 h, read-out: ED50 (the source's name).
The next data set deals with KB. The data set is described as follows: Growth inhibition of human KB cells after 72 hrs by SRB assay. It is filed as functional. The note with it: read-out: ED50 (the source's name).
A short description of data set [1]: Growth inhibition of rat ASK cells after 72 hrs by SRB assay. Type of data set: functional. Particulars: read-out: ED50 (the source's name).
Another data set relates to A549. The data set is described as follows: Growth inhibition of human A549 cells after 72 hrs by SRB assay. It is filed as functional. Particulars: A549, 72 h, read-out: ED50 (the source's name).
Data set [2] in a line: Growth inhibition of human KKU-M213 cells after 72 hrs by SRB assay. It is filed as functional. The note with it: KKU-M213, 72 h, read-out: ED50 (the source's name).
Another data set has as its system P388. The data set is described as follows: Growth inhibition of mouse P388 cells after 72 hrs by SRB assay. Particulars: P388, 72 h, read-out: ED50 (the source's name). It is filed as functional.
Data set [3] can be described thus: Growth inhibition of human HEK293 cells after 72 hrs by SRB assay. Type of data set: cell-based. The note with it: read-out: ED50.
A further data set relates to HT-29. The data set is described as follows: Growth inhibition of human HT-29 cells after 72 hrs by SRB assay. It is filed as functional. The note with it: HT-29, 72 h, read-out: ED50 (the source's name).
Data set [4] in a line: Growth inhibition of human KKU100 cells after 72 hrs by SRB assay. It is filed as functional. The note with it: KKU100, 72 h, read-out: ED50 (the source's name).
In another data set the test system is MCF7. The data set is described as follows: Growth inhibition of human MCF7 cells after 72 hrs by SRB assay. Type of data set: functional. Particulars: MCF7, 72 h, read-out: ED50 (the source's name).

On to `C=C1CC[C@@H]2[C@](C)(CO)[C@H](O)CC[C@@]2(C)[C@@H]1/C=C/C1=CCOC1=O`, for which the EC50 in the data set with HuCC-A1 is 35.8 µM; in the data set with KB, 5.07 µM; in data set [1], above 50 µM; with A549 it was 28.2 µM; in data set [2] it was above 50 µM; with P388 it was 35 µM. In addition, the EC50 in the data set with HT-29 was 28.6 µM; in data set [4], 36.9 µM; in the data set with MCF7, 18.7 µM. Besides, the GI50 at 72 h in data set [3] is 7.53 µM.
With `C=C1CC[C@@H]2[C@](C)(CO[Si](c3ccccc3)(c3ccccc3)C(C)(C)C)[C@H](O)CC[C@@]2(C)[C@@H]1/C=C/C1=CCOC1=O`, the EC50 in the data set with HuCC-A1 amounted to 5.53 µM; in the data set on KB it was 4.45 µM; in data set [1], 7.72 µM; in the data set with A549, 6.49 µM; in data set [2] it was 5.07 µM; with P388 it was 5.51 µM. Moreover, the EC50 turned out to be 6.48 µM in the data set with HT-29, 14.7 µM in [4] and 4.44 µM in the data set with MCF7. In addition, in data set [3], the GI50 at 72 h worked out at 4.4 µM.
Take `Cc1c2ccncc2c(C)c2c1[nH]c1ccccc12` [ELLIPTECINE]: the EC50 stood at 3.46 µM with HuCC-A1; 2.34 µM with KB; 2.17 µM in data set [1]; 2.37 µM in the data set with A549; 4.75 µM in data set [2]; 2.12 µM with P388. For the same compound, the EC50 with HT-29 worked out at 2.68 µM; in data set [4], 4.16 µM; with MCF7, 1.66 µM. Moreover, the GI50 at 72 h in data set [3] was 2.27 µM.
With `CC(=O)O[C@@H]1CC[C@]2(C)[C@H](CC[C@@]3(CO3)[C@H]2/C=C/C2=CCOC2=O)[C@]1(C)COC(c1ccccc1)(c1ccccc1)c1ccccc1`, the EC50 in the data set on HuCC-A1 came to 9.74 µM; with KB it was 5.12 µM; in data set [1] it was 8.29 µM; with A549, 8.16 µM; in data set [2], 10.2 µM; in the data set on P388, 5.28 µM. The EC50 turned out to be 6.74 µM in the data set with HT-29, 14.1 µM in data set [4] and 6.84 µM in the data set with MCF7. In addition, the GI50 at 72 h in data set [3] was 5.99 µM.
On to `C=C1CC[C@@H]2[C@](C)(COC(C)=O)[C@H](O)CC[C@@]2(C)[C@@H]1/C=C/C1=CCOC1=O`, for which the EC50 is above 50 µM in the data set on HuCC-A1; 25.7 µM with KB; above 50 µM in data set [1]; 32.8 µM in the data set on A549; above 50 µM in data set [2]; 27.7 µM with P388. Moreover, the EC50 with HT-29 is 45 µM; in data set [4], 40.2 µM; in the data set on MCF7, 31.1 µM. Also, the GI50 at 72 h in data set [3] is 27.8 µM.
